Data set [1] is described as follows: Pharmacological tests: cardiac stimulant effect. The class given is in vivo. To be noted: at relatively high doses (of the order of 50 mg). From the text: Pharmacological tests have shown also that:
Data set [2] concerns isoproterenol-induced cardio-acceleration and hypotension. To be noted: statement on the comparison drug; cited from earlier work.
The test system is the same in data set [3]. As to the kind of experiment: Beta-blocking and sympathomimetic activity against isoproterenol-induced cardio-acceleration and hypotension in anaesthetised dogs. In kind it is in vivo, dog. To be noted: for sympathomimetic activity / beta-blocking effect: product perfused i.v. at 25 mcg/kg/min, compared with Pindolol; for sympathomimetic activity: seen on cessation of isoprenaline; for beta-blocking properties relative to those of Pindolol: % of the beta-blocking properties of Pindolol, 25 mcg/kg/min i.v.; for beta-blocking effect: isoproterenol perfusion 0.2 mcg/kg/min. As to the method: These tests have been carried out on dogs (of both sexes) of weight comprised between 10 and 25 kg. These dogs were anesthetised by an injection of Pentobarbital (0.1 ml/kg of a 6% solution) and Chloralose (80 mg/kg). The blood pressure was recorded by means of a catheter inserted into the tibial artery and connected to a pressure cell, this pressure being recorded on a Beckman dynograph at the same time as an electrocardiogram; the latter enables the heart rhythm and the heart rate to be checked, integrated by a cardiotachometer.
The blood pressure and the electrocardiogram were first followed for five minutes. Then an isoproterenol solution was perfused into a cephalic vein, at the rate of 0.2 mcg/kg/min, namely 1 ml/min. After fiveperfusing for five minutes, the heart reached a tachycardiac level. At this moment, another perfusion was connected (into the cephalic vein of the other paw) of a Pindolol solution or of the product under study. The compounds of the invention was solubilized in 4 ml of DMF. The volume necessary for the perfusion was obtained by completing it with a 25% DMF solution in distilled water. All the products were injected at the rate of 25 mcg/kg/min. The
The extent to which the products were capable of antagonising the cardio-acceleration on the one hand and the hypotension on the other hand was examined.
After 35 minutes of perfusion, the isoprenaline injection was stopped. The Pindolol perfusion or that of the compound under study was interrupted after 40 minutes.

The subject of a further data set is mouse. The experiment in a line: Acute toxicity by the oral route in the mouse. In kind it is in vivo. As to the method:
(§1) As for its toxicity, for the determination of which experiments were carried out on two animal species, namely the rat of the OFA strain and the mouse of the OF1 strain, by two routes of administration namely the oral route and the intravenous route, the results obtained were as follows:
(§2) ACUTE TOXICITY OF THE PRODUCT S.C.S. 149 A ADMINISTERED BY THE ORAL ROUTE IN THE MOUSE
(§3) Death took place within 48 hours after treatment
(§4) The product was solubilized, for oral administration, in 2% CMC in water; the volume administered was 25 ml/kg in the mouse and 5 ml/kg in the rat for the dose of 1 g/kg, 10 ml/kg for 2 g/kg and 20 ml/kg for 3.5 and 5 g/kg.
(§5) The product was administered by oesophagal intubation.
(§6) The product was injected at the level of the caudal vein. Before administration of the product, the animals were kept fasting for 16 to 17 hours.

A short description of data set [4]: Acute toxicity by the oral route in the mouse. The class given is in vivo. To be noted: in vivo, po, LD 50. As to the method:
as §1, §2, §3, §4, §5, §6

A short description of data set [5]: Acute toxicity by the intravenous route in the mouse. The settings on record: in vivo; for LD50 at 48 h: 48 hours after treatment; for LD50 at 336 h: 14 days after treatment. The procedure:
as §1
ACUTE TOXICITY OF THE PRODUCT S.C.S. 149 ADMINISTERED BY THE INTRAVENOUS ROUTE IN THE MOUSE
ACUTE TOXICITY OF THE S.C.S. 149 PRODUCT ADMINISTERED BY THE INTRAVENOUS ROUTE IN THE MOUSE
LD 50 14 days after treatment.
(§7) For the intravenous route, the product was solubilized in:
sterile water in the mouse
(§8) The volume administered was:
as §6

The next data set has as its system rats. The experiment in a line: Six-month toxicological test in rats. The class given is in vivo. To be noted: rats of both sexes, daily for six months. The procedure: (§9) Also, toxicological tests have been carried out on 32 dogs (of both sexes) and 160 rats (of both sexes) for six months and have shown that S.C.S. 149 may be tolerated by the rats at a maximum daily dose of 500 mg/kg and by the dogs at a maximum daily dose of 100 mg/kg.

The test system of data set [6] is rat. The experiment in a line: Acute toxicity by the intravenous route in the rat. The class given is in vivo. The procedure: as §1
(§10) ACUTE TOXICITY OF THE PRODUCT S.C.S. 149 ADMINISTERED BY THE INTRAVENOUS ROUTE IN THE RAT
(§11) Death took place within 48 hours after administration of the product.
as §7
(§12) PEG 400+sterile water (1/3+2/3) in the rat.
as §8, §6

A short description of data set [7]: Acute toxicity by the intravenous route in the rat. In kind it is in vivo. The settings on record: in vivo, iv, LD 50. The procedure:
as §1, §10, §11, §7, §12, §8, §6

The subject of a further data set is dogs. As to the kind of experiment: Six-month toxicological test in dogs. To be noted: dogs of both sexes, daily for six months. The class given is in vivo. As to the method: as §9
Another data set relates to isolated bronchi. As to the kind of experiment: Tests on isolated bronchi (bronchial level).
Data set [8] concerns rat. As to the kind of experiment: Acute toxicity by the oral route in the rat. The class given is in vivo. The procedure: as §1
(§13) ACUTE TOXICITY OF THE S.C.S. 149 PRODUCT ADMINISTERED BY THE ORAL ROUTE IN THE RAT
(§14) Death occured within 48 hours after the treatment.
as §4, §5, §6

Data set [9] is described as follows: Acute toxicity by the oral route in the rat. To be noted: in vivo, po, LD 50. In kind it is in vivo. The procedure: as §1, §13, §14, §4, §5, §6
The subject of a further data set is beta 1 (isolated atria). As to the kind of experiment: Tests on isolated atria (cardiac level).

Entries after “also recorded” stand apart in the source; their conditions may differ. Where only a bound is given, the exact number is not on record here.

`CC(C)N(CC(O)COc1cccc2ccccc12)C(N)=O` (stereo not drawn) [SCS 131]: in [1], the cardiac stimulant effect result is “cardiac stimulant effects; also recorded: cardiac stimulants”.
Turning to `CC(C)NCC(O)COc1cccc2[nH]ccc12` (stereo not drawn) [Pindolol], the “intrinsic sympathomimetic action among beta-blocking agents currently used in therapeutics” value in data set [2] is on record as “intrinsic sympathomimetic action is greatest”.
Take `CCOC(=O)NC(=N)N(CC(O)COc1ccc(Cl)cc1)C1CCCCC1` (stereo not drawn) [SCS 147]: the sympathomimetic activity result in data set [3] is given as “sympathomimetic activity still greater than that of the preceding compound”; in data set [3] (listed as 147) it was “sympathomimetic action”.
In the case of `CCOC(=O)NC(=N)N(CC(O)COc1ccccc1C)C(C)C` (stereo not drawn) [SCS 150], in [3], the “beta-blocking properties relative to those of Pindolol” value is given as “about 70%”, the beta-blocking effect entry is “adrenergic beta-blocking properties” and the sympathomimetic activity entry is “intrinsic sympathomimetic effects”. The beta-blocking effect result in data set [3] (listed as 150) is reported as “beta-blocking effects”.
Take `Cc1ccccc1OCC(O)CN(C(=N)NC(=O)c1ccccc1)C(C)C` (stereo not drawn) [SCS 149]: the “LD 50” value amounted to 604.81 mg/kg with mouse (in vivo, po, 48 h); 40.37 mg/kg with rat [6] (in vivo, iv, 48 h); 2932.6 mg/kg with rat [8] (in vivo, po, 48 h). Moreover, the “time of death after treatment” value in the data set with mouse (oral) and in the data set on rat [8] (oral) was no more than 48 h throughout. The LD50 (as a rule, the dose expected to kill half of the subjects tested) at 48 h was 560 mg/kg in data set [4]; 38.8 mg/kg in data set [5] (female mice); 37.2 mg/kg in [5] (male mice); 35.3 mg/kg in [7]; 3330 mg/kg in data set [9]. Moreover, the LD50 at 336 h in [5] (female mice) is 38.1 mg/kg; in [5] (male mice) it was 37.2 mg/kg. Also, the results for the “maximum tolerated daily dose” value in the data set on rats and in the data set on dogs were 500 mg/kg and 100 mg/kg, respectively. Further, the “time of death after administration” value in the data set on rat [6] (intravenous) is no more than 48 h. In data set [3], the “beta-blocking properties relative to those of Pindolol” value is “about 60%”. In addition, the values for the beta-blocking effect entry in [3] and in [3] (listed as 149) were “undisputable beta-blocking properties” and “beta-blocking effects”, respectively. Besides, the sympathomimetic activity result in data set [3] is “intrinsic sympathomimetic effects”. In the data set on isolated bronchi, the “blocking activity, type at the bronchial level” value is listed as “of the competitive type”. The “beta 1 blocking activity, type at the cardiac level” value in the data set on beta 1 (isolated atria) is reported as “beta 1 blocking activity of competitive type”.
With `CCOC(=O)NC(=N)N(CC(O)COc1ccccc1Cl)C1CCCCC1` (stereo not drawn) [SCS 146], the sympathomimetic activity entry in data set [3] is listed as “sympathomimetic action; also recorded: considerable sympathomimetic activity”.
Consider `CCCCNC(=O)N(CC(O)COc1cccc2ccccc12)C(C)C` (stereo not drawn) [SCS 128], for which the cardiac stimulant effect result in [1] is “cardiac stimulant effects; also recorded: cardiac stimulants”.
Consider `CCOC(=O)NC(=N)N(CC(O)COc1ccccc1C)C1CCCCC1` (stereo not drawn) [SCS 151], for which the values for the sympathomimetic activity entry in data set [3] and in data set [3] (listed as 151) were “sympathomimetic characteristics” and “sympathomimetic action”, respectively.
For the compound `CCOC(=O)NC(=N)N(CC(O)COc1ccc(Cl)cc1)C(C)C` (stereo not drawn) [SCS 148], the beta-blocking effect entry in [3] is listed as “certain betablocking action masked by intrinsic sympathomimetic properties”. Besides, the sympathomimetic activity entry is given as “intrinsic sympathomimetic properties” in data set [3] and “sympathomimetic action” in data set [3] (listed as 148).

The record behind these values is US4376783A, “Acylated guanidines and medicaments containing them” (Compagnie Francaise de Sucerie, priority 1980, dated 1983).
